Source: patent US10737072B2, “Control catheters and methods for pulmonary suffusion and related therapies” (SUFFUSION TECHNOLOGIES LLC, priority 2012, dated 2020)
Read-outs that look alike come from different tables or passages of the source.

Tests used:
stage IV NSCLC [1] = conditions: cited from earlier work
[2] = tested on: primary and metastatic cancer; conditions: et al., cited from earlier work
[3] = tested on: primary and metastatic cancer; conditions: et al., cited from earlier work; remark: listed apart in the source
stage IV NSCLC [4] = assay: Thoracoscopic lung suffusion, phase I clinical trial; format: in vivo, human
From the text: The term “suffusion” has been defined as the slow diffuse permeation of the tissues by an injectate during arterial or venous occlusion. Unlike methods for arterial infusion or isolated perfusion, those for suffusion require neither permanent occlusion nor recirculation. The technique involves isolating chemotherapy into the lung by interventional radiologic control of the pulmonary artery and endoscopic control of the pulmonary veins. The suffusion method was first described in a canine model in 2002. A minimally invasive approach and its short-term potential were established using a non-toxic tracer compound. Rapid permeation of the lung and 75% of tracer remaining isolated the lung for 30 minutes was observed.
One phase I clinical trial on four stage IV NSCLC patients has been conducted.

[5] = Schroder, 2002, 4 cases of metastatic sarcoma, following metastectomy
[6] = Hendriks, 2004, 16 cases of resectable pulmonary metastases, followed by metastectomy
[7] = Burt, 2000, 8 cases of metastatic sarcoma

N.N.[Cl][Pt][Cl] [Cisplatin]
reduction in tumor volume (stage IV NSCLC [1]; Demmy, et al., 2009, 4 cases of stage IV NSCLC, with systemic chemotherapy): 14%-96% | Tumor volume reduced (stage IV NSCLC [1]; four stage IV NSCLC patients, systemic chemotherapy began within 2 weeks of the suffusion): 14% to 96% | complete response ([2]; So, 2004, 3 cases of locally advanced NSCLC, and carinal resection): 100% complete | Interstitial and alveolar edema (number of cases) ([3]; Ratto, 1996, 6 cases of metastatic sarcoma): (2) cases | disease-free after 1 year [3, 5]: 75% disease- | localized pulmonary edema (number of cases) [3, 5]: (4), reduced cases | reduced pulmonary function at 3 weeks (number of cases) [3, 5]: weeks (3) cases | patients who could not tolerate suffusion (stage IV NSCLC [4]; total of ten patients treated by suffusion (unpublished data)): One of 10 | patients with evaluable disease showing control or reduction of the main tumor in the suffused lung (stage IV NSCLC [4]; unpublished data, growth of tumor in other parts of the body despite systemic chemotherapy): 4 of 5

N[C@@H](Cc1ccc(N(CCCl)CCCl)cc1)C(=O)O [Melphalan]
Chemical pneumonitis (number of cases) [3, 6]: pneumonitis (2), cases | localized pulmonary edema (number of cases) [3, 6]: (3), pneumonia cases | pneumonia (number of cases) [3, 6]: (1), cases | pneumothorax (number of cases) [3, 6]: pneumothorax (1) cases

CO[C@@]12[C@H](COC(N)=O)C3=C(C(=O)C(C)=C(N)C3=O)N1C[C@@H]1N[C@@H]12 [Mitomycin C]
tumor volume reduced in ([2]; Neyazaki, 1969, 27 cases): 52%

COc1cccc2c1C(=O)c1c(O)c3c(c(O)c1C2=O)C[C@@](O)(C(=O)CO)C[C@@H]3O[C@H]1C[C@H](N)[C@H](O)[C@H](C)O1 [Doxorubicin]
Pulmonary fibrosis (number of cases) [3, 7]: fibrosis (1), cases | reduced pulmonary function (number of cases) [3, 7]: function (7) cases | response [3, 7]: 0% response
